Test results reported in patent US8431395B2, “Pluripotent cells from rat and other species” (The University Court of the University of Edinburgh, priority 2006, dated 2013).

How the values were obtained:
GSK3 = conditions: cited from earlier work
mouse ES cells = test: Culture of pluripotent (ES) cells with inhibitors to promote self renewal; assay type: cell-based
Source text: Mix DMEM/F12-N2 medium with Neurobasal/B27 medium at the ration of 1:1. The media was used to dilute all compounds and grow the cells.

3i rat cells = test: Maintenance of undifferentiated rat 3i cells under altered culture conditions; assay type: cell-based
Source text: We investigated the effect of altering the culture conditions on maintenance of the undifferentiated state. […] LIF is not included in culture medium, consistent with the sufficiency of 3i for mouse ES cells. Rat cells transferred from 3i to medium supplemented with serum and LIF or BMP and LIF differentiated into various morphologies and lost expression of Oct4 and Nanog (FIG. 13a). These observations indicate that the 3i rat cells have reduced responsiveness to gp130/Stat3 signalling compared with mouse ES cells^20, 21. This may be a significant contributory factor to previous failures to derive rat ES cells.
Cells cultured without inhibitors differentiated into various morphologies (FIG. 13b). […] These findings are consistent with the hypothesis that blockade of FGF/Erk signaling is the critical requirement to sustain the naïve pluripotent state (Ying et al., submitted).
Recently the derivation of cell lines from post-implantation egg cylinder stage epiblast has been reported in mice and rats^3, 10. […] In contrast the 3i rat cells do contribute to chimaeras. They also express Rex1, Stella (Dppa3) and alkaline phosphatase, markers of ES cells and early epiblast that are absent in EpiSCs. Furthermore 3i rat cells can readily be propagated after dissociation into single cells whereas maintained cell-cell contact appears critical for EpiSCs. […]

| Molecule | specificity (GSK3) | results as GSK3 inhibitor in culture of pluripotent cells (mouse ES cells) | fold lower concentration at which fully effective as substitute for SU5402 (mouse ES cells; relative to SU5402) | maintenance / propagation of undifferentiated rat cells (3i rat cells) |
| --- | --- | --- | --- | --- |
| Cc1c[nH]c(-c2cnc(NCCNc3ccc(C#N)cn3)nc2-c2ccc(Cl)cc2Cl)n1 [CHIR 99021] | specific for GSK3 | Good results |  |  |
| CCN(CC)CCCCNc1ncc2cc(-c3cc(OC)cc(OC)c3)c(NC(=O)NC(C)(C)C)nc2n1 [PD173074] |  |  | about 100 fold |  |
| NC(=O)c1ccc(-c2nc(-c3ccccn3)c(-c3ccc4c(c3)OCO4)[nH]2)cc1 [SB431452] |  |  |  | did not impede propagation |
| CHIR 98014 | specific for GSK3 | Good results |  |  |
